# Source: PubChem BioAssay AID2060904 (Molecular Pharmacology Branch, DTP, NCI, 2025)
# pIC50: −log10 of the molar value.
# Tested on: 349418-098-R-PDC complex spheroid viability
# Assay: Anticancer human tumor 349418-098-R-PDC patient-derived lung adenocarcinoma cell line growth inhibition [RAS]
# Settings: for viability, T/C: stronger effect = lower value
# How it was run: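 Agents were tested in combination matrices in half-log decrements from a top concentration at or near clinical Cmax (10 microM if undetermined). Targets were multi-cell spheroids of tumour lines plus HUVEC and MSC stromal cells.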
# [1] = curve of first compound, second compound 0.0316 µM
# [2] = curve of first compound, second compound 0.1 µM
# [3] = curve of first compound, second compound 0.316 µM
# [4] = curve of first compound, second compound 1 µM
# [5] = curve of first compound, second compound 3.16 µM
# [6] = curve of first compound, second compound 10 µM
# [7] = second compound 0.0316 µM, first compound 0.0316 µM
# [8] = second compound 0.0316 µM, first compound 0.1 µM
# [9] = second compound 0.0316 µM, first compound 0.316 µM
# [10] = second compound 0.0316 µM, first compound 1 µM
# [11] = second compound 0.0316 µM, first compound 3.16 µM
# [12] = second compound 0.0316 µM, first compound 10 µM
# [13] = second compound 0.1 µM, first compound 0.0316 µM
# [14] = second compound 0.1 µM, first compound 0.1 µM
# [15] = second compound 0.1 µM, first compound 0.316 µM
# [16] = second compound 0.1 µM, first compound 1 µM
# [17] = second compound 0.1 µM, first compound 3.16 µM
# [18] = second compound 0.1 µM, first compound 10 µM
# [19] = second compound 0.316 µM, first compound 0.0316 µM
# [20] = second compound 0.316 µM, first compound 0.1 µM
# [21] = second compound 0.316 µM, first compound 0.316 µM
# [22] = second compound 0.316 µM, first compound 1 µM
# [23] = second compound 0.316 µM, first compound 3.16 µM
# [24] = second compound 0.316 µM, first compound 10 µM
# [25] = second compound 1 µM, first compound 0.0316 µM
# [26] = second compound 1 µM, first compound 0.1 µM
# [27] = second compound 1 µM, first compound 0.316 µM
# [28] = second compound 1 µM, first compound 1 µM
# [29] = second compound 1 µM, first compound 3.16 µM
# [30] = second compound 1 µM, first compound 10 µM
# [31] = second compound 3.16 µM, first compound 0.0316 µM
# [32] = second compound 3.16 µM, first compound 0.1 µM
# [33] = second compound 3.16 µM, first compound 0.316 µM
# [34] = second compound 3.16 µM, first compound 1 µM
# [35] = second compound 3.16 µM, first compound 3.16 µM
# [36] = second compound 3.16 µM, first compound 10 µM
# [37] = second compound 10 µM, first compound 0.0316 µM
# [38] = second compound 10 µM, first compound 0.1 µM
# [39] = second compound 10 µM, first compound 0.316 µM
# [40] = second compound 10 µM, first compound 1 µM
# [41] = second compound 10 µM, first compound 3.16 µM
# [42] = second compound 10 µM, first compound 10 µM
# 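Also: spheroids exposed to compound for seven days before viability readout.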
structure (smiles),measurement,setting,value
C[C@@H](NC(=O)c1ncnc(N)c1Cl)c1ncc(C(=O)Nc2cc(C(F)(F)F)c(Cl)cn2)s1 + C#Cc1c(F)ccc2cc(O)cc(-c3ncc4c(N5CC6CCC(C5)N6)nc(OCC56CCCN5CC(F)C6)nc4c3F)c12,pIC50,[1],5.61
same,pIC50,[2],5.57
same,pIC50,[3],5.66
same,pIC50,[4],5.57
same,pIC50,[5],5.53
same,pIC50,[6],6.40
same,"viability, T/C",[7],83.8%
same,"viability, T/C",[8],116%
same,"viability, T/C",[9],89%
same,"viability, T/C",[10],67.8%
same,"viability, T/C",[11],47.2%
same,"viability, T/C",[12],35.4%
same,"viability, T/C",[13],101%
same,"viability, T/C",[14],118%
same,"viability, T/C",[15],95.9%
same,"viability, T/C",[16],73.2%
same,"viability, T/C",[17],47.4%
same,"viability, T/C",[18],36.6%
same,"viability, T/C",[19],110%
same,"viability, T/C",[20],119%
same,"viability, T/C",[21],76.4%
same,"viability, T/C",[22],62.4%
same,"viability, T/C",[23],52%
same,"viability, T/C",[24],32.8%
same,"viability, T/C",[25],90.7%
same,"viability, T/C",[26],93.8%
same,"viability, T/C",[27],107%
same,"viability, T/C",[28],76.7%
same,"viability, T/C",[29],47.6%
same,"viability, T/C",[30],34.5%
same,"viability, T/C",[31],86.6%
same,"viability, T/C",[32],92.8%
same,"viability, T/C",[33],87%
same,"viability, T/C",[34],75.2%
same,"viability, T/C",[35],48.5%
same,"viability, T/C",[36],28.4%
same,"viability, T/C",[37],76.5%
same,"viability, T/C",[38],61.5%
same,"viability, T/C",[39],57.5%
same,"viability, T/C",[40],33.2%
same,"viability, T/C",[41],30.2%
same,"viability, T/C",[42],8.17%
C=CC(=O)Nc1cc(Nc2nccc(-c3cn(C)c4ccccc34)n2)c(OC)cc1N(C)CCN(C)C + CCn1c(-c2cccnc2C(C)OC)c2c3cc(ccc31)N1CCOC(CC(NC(=O)C(C(C)C)N(C)C(=O)C3(F)CCN(C(=O)C#CC(C)(C)N(C)C)CC3)C(=O)N3CCCC(N3)C(=O)OCC(C)(C)C2)C1,pIC50,"curve of first compound, second compound 0.000949 µM",< 6.00
same,pIC50,"curve of first compound, second compound 0.003 µM",< 6.00
same,pIC50,"curve of first compound, second compound 0.00949 µM",< 6.00
same,pIC50,"curve of first compound, second compound 0.03 µM",< 6.00
same,pIC50,"curve of first compound, second compound 0.0949 µM",< 6.00
same,pIC50,"curve of first compound, second compound 0.3 µM",< 6.00
same,"viability, T/C","second compound 0.000949 µM, first compound 0.00316 µM",115%
same,"viability, T/C","second compound 0.000949 µM, first compound 0.01 µM",100%
same,"viability, T/C","second compound 0.000949 µM, first compound 0.0316 µM",93.6%
same,"viability, T/C","second compound 0.000949 µM, first compound 0.1 µM",98.3%
same,"viability, T/C","second compound 0.000949 µM, first compound 0.316 µM",95.4%
same,"viability, T/C","second compound 0.000949 µM, first compound 1 µM",71.8%
same,"viability, T/C","second compound 0.003 µM, first compound 0.00316 µM",117%
same,"viability, T/C","second compound 0.003 µM, first compound 0.01 µM",98.6%
same,"viability, T/C","second compound 0.003 µM, first compound 0.0316 µM",114%
same,"viability, T/C","second compound 0.003 µM, first compound 0.1 µM",116%
same,"viability, T/C","second compound 0.003 µM, first compound 0.316 µM",116%
same,"viability, T/C","second compound 0.003 µM, first compound 1 µM",60.7%
same,"viability, T/C","second compound 0.00949 µM, first compound 0.00316 µM",109%
same,"viability, T/C","second compound 0.00949 µM, first compound 0.01 µM",117%
same,"viability, T/C","second compound 0.00949 µM, first compound 0.0316 µM",110%
same,"viability, T/C","second compound 0.00949 µM, first compound 0.1 µM",96%
same,"viability, T/C","second compound 0.00949 µM, first compound 0.316 µM",104%
same,"viability, T/C","second compound 0.00949 µM, first compound 1 µM",75.9%
same,"viability, T/C","second compound 0.03 µM, first compound 0.00316 µM",119%
same,"viability, T/C","second compound 0.03 µM, first compound 0.01 µM",109%
same,"viability, T/C","second compound 0.03 µM, first compound 0.0316 µM",105%
same,"viability, T/C","second compound 0.03 µM, first compound 0.1 µM",106%
same,"viability, T/C","second compound 0.03 µM, first compound 0.316 µM",103%
same,"viability, T/C","second compound 0.03 µM, first compound 1 µM",75.2%
same,"viability, T/C","second compound 0.0949 µM, first compound 0.00316 µM",110%
same,"viability, T/C","second compound 0.0949 µM, first compound 0.01 µM",99.3%
same,"viability, T/C","second compound 0.0949 µM, first compound 0.0316 µM",85.4%
same,"viability, T/C","second compound 0.0949 µM, first compound 0.1 µM",98.6%
same,"viability, T/C","second compound 0.0949 µM, first compound 0.316 µM",101%
same,"viability, T/C","second compound 0.0949 µM, first compound 1 µM",65.3%
same,"viability, T/C","second compound 0.3 µM, first compound 0.00316 µM",90.2%
same,"viability, T/C","second compound 0.3 µM, first compound 0.01 µM",99.8%
same,"viability, T/C","second compound 0.3 µM, first compound 0.0316 µM",99.2%
same,"viability, T/C","second compound 0.3 µM, first compound 0.1 µM",100%
same,"viability, T/C","second compound 0.3 µM, first compound 0.316 µM",88.2%
same,"viability, T/C","second compound 0.3 µM, first compound 1 µM",65.6%
Nc1ccn(C2OC(CO)C(O)C2(F)F)c(=O)n1 (stereo not given),"viability, T/C",compound 0.00316 µM,25.7% [middle of 4 runs]
same,"viability, T/C",compound 0.01 µM,6.96% [middle of 4 runs]
same,"viability, T/C",compound 0.0316 µM,5.62% [middle of 4 runs]
same,"viability, T/C",compound 0.1 µM,5.46% [middle of 4 runs]
same,"viability, T/C",compound 0.316 µM,5.2% [middle of 4 runs]
same,"viability, T/C",compound 1 µM,5.11% [middle of 4 runs]
same,pIC50,curve of compound,> 8.50
CCC(CC)c1cc(NC2CCC(N)C2)n2nccc2n1 (stereo not given) + C#Cc1c(F)ccc2cc(O)cc(-c3ncc4c(N5CC6CCC(C5)N6)nc(OCC56CCCN5CC(F)C6)nc4c3F)c12,pIC50,[1],6.13
same,pIC50,[2],6.09
same,pIC50,[3],6.04
same,pIC50,[4],6.06
same,pIC50,[5],6.15
same,pIC50,[6],> 7.50
same,"viability, T/C",[7],91.3%
same,"viability, T/C",[8],106%
same,"viability, T/C",[9],76.1%
same,"viability, T/C",[10],41.9%
same,"viability, T/C",[11],3.06%
same,"viability, T/C",[12],2.85%
same,"viability, T/C",[13],84.2%
same,"viability, T/C",[14],107%
same,"viability, T/C",[15],84.5%
same,"viability, T/C",[16],42.6%
same,"viability, T/C",[17],2.89%
same,"viability, T/C",[18],2.86%
same,"viability, T/C",[19],91.3%
same,"viability, T/C",[20],112%
same,"viability, T/C",[21],106%
same,"viability, T/C",[22],44.8%
same,"viability, T/C",[23],4.03%
same,"viability, T/C",[24],2.72%
same,"viability, T/C",[25],75.8%
same,"viability, T/C",[26],85.6%
same,"viability, T/C",[27],67.2%
same,"viability, T/C",[28],48.9%
same,"viability, T/C",[29],3.08%
same,"viability, T/C",[30],3.26%
same,"viability, T/C",[31],75%
same,"viability, T/C",[32],97.5%
same,"viability, T/C",[33],83.2%
same,"viability, T/C",[34],36.1%
same,"viability, T/C",[35],3.69%
same,"viability, T/C",[36],3.11%
same,"viability, T/C",[37],52.5%
same,"viability, T/C",[38],44.7%
same,"viability, T/C",[39],42.7%
same,"viability, T/C",[40],20.4%
same,"viability, T/C",[41],1.26%
same,"viability, T/C",[42],0.7%
O=C(c1ccc(F)c(F)c1Nc1ccc(I)cc1F)N1CC(O)([C@@H]2CCCCN2)C1,"viability, T/C",compound 0.00316 µM,35.9% [middle of 4 runs]
same,"viability, T/C",compound 0.01 µM,35.3% [middle of 4 runs]
same,"viability, T/C",compound 0.0316 µM,33% [middle of 4 runs]
same,"viability, T/C",compound 0.1 µM,12.2% [middle of 4 runs]
same,"viability, T/C",compound 0.316 µM,7.62% [middle of 4 runs]
same,"viability, T/C",compound 1 µM,6.03% [middle of 4 runs]
same,pIC50,curve of compound,> 8.50
